Our source for the Ki values is patent US7608717B2, “Sulfonyldihydroimidazopyridinone compounds as 5-hydroxytryptamine-6 ligands” (Wyeth, priority 2003, dated 2009).

T1 sequence (P50406 whole entry): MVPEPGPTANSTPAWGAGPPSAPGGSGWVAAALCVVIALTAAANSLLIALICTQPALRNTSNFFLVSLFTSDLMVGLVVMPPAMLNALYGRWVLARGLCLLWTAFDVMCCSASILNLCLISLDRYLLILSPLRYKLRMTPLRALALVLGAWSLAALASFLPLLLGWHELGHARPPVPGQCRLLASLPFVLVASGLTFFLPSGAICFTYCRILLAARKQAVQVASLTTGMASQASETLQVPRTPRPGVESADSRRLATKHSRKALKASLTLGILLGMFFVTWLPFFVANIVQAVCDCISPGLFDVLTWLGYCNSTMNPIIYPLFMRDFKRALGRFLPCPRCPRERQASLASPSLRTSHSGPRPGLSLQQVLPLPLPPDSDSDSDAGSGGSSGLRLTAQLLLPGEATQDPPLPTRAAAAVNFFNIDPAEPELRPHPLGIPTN

This assay addresses T1, human cloned 5-HT6 receptors (Homo sapiens, UniProt P50406).
T1 construct: expressed in transfected cells; host or cells: HeLa cells
In words: 5-HT6 binding affinity ([3H]-LSD displacement, membranes of Hela cells expressing human cloned 5-HT6 receptors). The following applies: [3H]-LSD 3.0 nM, Hela cell membranes, 120 min at room temperature. The protocol:
The affinity of test compounds for the serotonin 5-HT6 receptor is evaluated in the following manner. Cultured Hela cells expressing human cloned 5-HT6 receptors are harvested and centrifuged at low speed (1,000×g) for 10.0 min to remove the culture media. The harvested cells are suspended in half volume of fresh physiological phosphate buffered saline solution and recentrifuged at the same speed. This operation is repeated. The collected cells are then homogenized in ten volumes of 50 mM Tris.HCl (pH 7.4) and 0.5 mM EDTA. The homogenate is centrifuged at 40,000×g for 30.0 min and the precipitate is collected. The obtained pellet is resuspended in 10 volumes of Tris.HCl buffer and recentrifuged at the same speed. The final pellet is suspended in a small volume of Tris.HCl buffer and the tissue protein content is determined in aliquots of 10-25 μl volumes. Bovine Serum Albumin is used as the standard in the protein determination according to the method described in Lowry et al., J. Biol. Chem., 193:265 (1951). The volume of the suspended cell membranes is adjusted to give a tissue protein concentration of 1.0 mg/ml of suspension. The prepared membrane suspension (10 times concentrated) is aliquoted in 1.0 ml volumes and stored at −70° C. until used in subsequent binding experiments.
Binding experiments are performed in a 96 well microtiter plate format, in a total volume of 200 μl. […] The test compounds are added in 20.0 μl volume.
The reaction is allowed to proceed in the dark for 120 min at room temperature, at which time, the bound ligand-receptor complex is filtered off on a 96 well unifilter with a Packard Filtermate® 196 Harvester. The bound complex caught on the filter disk is allowed to air dry and the radioactivity is measured in a Packard TopCount® equipped with six photomultiplier detectors, after the addition of 40.0 μl Microscint®-20 scintillant to each shallow well. The unifilter plate is heat-sealed and counted in a PackardTopCount® with a tritium efficiency of 31.0%.
Binding in the presence of varying concentrations of test compound is expressed as a percentage of specific binding in the absence of test compound. The results are plotted as log % bound versus log concentration of test compound. […] A linear regression line of data points is plotted, from which the IC50 value is determined and the Ki value is determined based upon the following equation: Ki=IC50/(1+L/KD) where L is the concentration of the radioactive ligand used and KD is the dissociation constant of the ligand for the receptor, both expressed in nM.
Turning to `CN(C)CCn1c(=O)n(S(=O)(=O)c2cccc(F)c2)c2cccnc21` [Example 4, 3-(2-dimethylaminoethyl)-1-[(3-fluorophenyl)sulfonyl]-1,3-dihydro-2H-imidazo[4,5-b]pyridin-2-one], affinity was put at a Ki of 80 nM. For `CN(C)CCn1c(=O)n(S(=O)(=O)c2cccc(Br)c2)c2cccnc21` [Example 7, 1-[(3-bromophenyl)sulfonyl]-3-[2-(dimethylamino)ethyl]-1,3-dihydro-2H-imidazo[4,5-b]pyridin-2-one] the value was 23 nM; for `NCCn1c(=O)n(S(=O)(=O)c2ccc(Cl)s2)c2cccnc21` [Example 14, 3-(2-Aminoethyl)-1-[(5-chlorothien-2-yl)sulfonyl]-1,3-dihydro-2H-imidazo[4,5-b]pyridin-2-one], 18 nM; for `NCCn1c(=O)n(S(=O)(=O)c2ccccc2)c2cccnc21` [Example 15, 3-(2-aminoethyl)-1-(phenylsulfonyl)-1,3-dihydro-2H-imidazo[4,5-b]pyridin-2-one], 44 nM. For `NCCn1c(=O)n(S(=O)(=O)c2cccc(Cl)c2)c2cccnc21` [Example 16, 3-(2-aminoethyl)-1-[(3-chlorophenyl)sulfonyl]-1,3-dihydro-2H-imidazo[4,5-b]pyridin-2-one] the value was 16 nM; for `NCCn1c(=O)n(S(=O)(=O)c2c(Cl)nc3sccn23)c2cccnc21` [Example 17, 3-(2-aminoethyl)-1-[(6-chloroimidazo[2,1-b][1,3]thiazol-5-yl)sulfonyl]-1,3-dihydro-2H-imidazo[4,5-b]pyridin-2-one], 4 nM. For `NCCn1c(=O)n(S(=O)(=O)c2ccc3ccccc3c2)c2cccnc21` [Example 18, 3-(2-aminoethyl)-1-(2-naphthylsulfonyl)-1,3-dihydro-2H-imidazo[4,5-b]pyridin-2-one] the value was 5 nM; for `COc1cccc(S(=O)(=O)n2c(=O)n(CCN)c3ncccc32)c1` [Example 19, 3-(2-aminoethyl)-1-[(3-methoxyphenyl)sulfonyl]-1,3-dihydro-2H-imidazo[4,5-b]pyridin-2-one], 14 nM.

`NCCn1c(=O)n(S(=O)(=O)c2ccccc2F)c2cccnc21` [Example 20, 3-(2-aminoethyl)-1-[(2-fluorophenyl)sulfonyl]-1,3-dihydro-2H-imidazo[4,5-b]pyridin-2-one] registered a Ki of 77 nM. In turn, `NCCn1c(=O)n(S(=O)(=O)c2ccccc2Cl)c2cccnc21` [Example 22, 3-(2-aminoethyl)-1-[(2-chlorophenyl)sulfonyl]-1,3-dihydro-2H-imidazo[4,5-b]pyridin-2-one] came in with an inhibition constant (Ki) of 55 nM. For `NCCn1c(=O)n(S(=O)(=O)c2ccc(Cl)cc2)c2cccnc21` [Example 23, 3-(2-aminoethyl)-1-[(4-chlorophenyl)sulfonyl]-1,3-dihydro-2H-imidazo[4,5-b]pyridin-2-one] the value was 17 nM; for `NCCn1c(=O)n(S(=O)(=O)c2cccc(Cl)c2Cl)c2cccnc21` [Example 24, 3-(2-aminoethyl)-1-[(2,3-dichlorophenyl)sulfonyl]-1,3-dihydro-2H-imidazo[4,5-b]pyridin-2-one], 9 nM; for `NCCn1c(=O)n(S(=O)(=O)c2cccc(Br)c2)c2cccnc21` [Example 25, 3-(2-aminoethyl)-1-[(3-bromophenyl)sulfonyl]-1,3-dihydro-2H-imidazo[4,5-b]pyridin-2-one], 12 nM. Then `NCCn1c(=O)n(S(=O)(=O)c2ccc(Br)s2)c2cccnc21` [Example 26, 3-(2-aminoethyl)-1-[(5-bromothien-2-yl)sulfonyl]-1,3-dihydro-2H-imidazo[4,5-b]pyridin-2-one], with 9 nM. For `NCCn1c(=O)n(S(=O)(=O)c2cc(Cl)sc2Cl)c2cccnc21` [Example 27, 3-(2-aminoethyl)-1-[(2,5-dichlorothien-3-yl)sulfonyl]-1,3-dihydro-2H-imidazo[4,5-b]pyridin-2-one] the value was 22 nM.

Broadly, the Ki is the equilibrium dissociation constant of an inhibitor or competing ligand from its target. Read a high Ki as lower affinity.
